# From patent US20080118918A1, “Compositions and Methods For Determining and Predicting Treatment Responses For Depression and Anxiety” (THE REGENTS of the University of California, priority 2004, published 2008)
# Tests used:
# CNS CRH gene expression = details: in vivo; cited from earlier work
# [1] = test system: depressed Mexican-Americans; assay: prospective randomized, placebo lead-in, double-blind treatment of fluoxetine or desipramine for eight weeks; HAM-A and HAM-D changes stratified by CRHR1 GAG haplotype; assay type: in vivo, human; details: fluoxetine 10 mg-40 mg/day vs desipramine 50 mg-200 mg/day, 8 weeks
# From the text: The primary outcome measures of the association analysis were the changes in the Hamilton rating scales for anxiety (HAM-A) and depression (HAM-D).
# All patients were followed weekly and assessed for changes in the Hamilton rating scales for anxiety (HAM-A) and depression (HAM-D). Inclusion criteria in the study included a HAM-D of 18 or higher. Patients were classified into a high anxiety (HA) group if their HAM-A score was 18 or higher and in a low anxiety (LA) group if their HAM-A score was less than 18.
# The study population consisted of 233 depressed subjects enrolled in an ongoing pharmacogenetic study of antidepressant treatment response to desipramine or fluoxetine. Data from the first 80 subjects who completed the protocol and for whom we had available genetic data are reported herein. […] All patients are Mexican-American men and women ages 21-68, with a current episode of major depression as diagnosed by the DSM-IV. In this study, all Mexican-American subjects had at least three grandparents born in Mexico. […]
# Eighty subjects were divided into a low anxiety group (LA) with HAM-A score less than 18 at screening and a high anxiety group (HA), with HAM-A scores that were 18 or higher at screening. […] Demographics of the LA group and HA group were assessed for homogeneity using χ^2 or t-tests, as appropriate.
smiles,measurement,setting,value
CNCCCN1c2ccccc2CCc2ccccc21 [desipramine],effects on downregulating CNS CRH gene expression,CNS CRH gene expression,equal effects on downregulating CNS CRH gene expression
same,"antidepressant effectiveness, comparison of the two drugs",[1],no differences between the two drugs in terms of antidepressant effectiveness have been observed
CNCCC(Oc1ccc(C(F)(F)F)cc1)c1ccccc1 (stereo not shown) [fluoxetine],effects on downregulating CNS CRH gene expression,CNS CRH gene expression,equal effects on downregulating CNS CRH gene expression
same,"antidepressant effectiveness, comparison of the two drugs",[1],no differences between the two drugs in terms of antidepressant effectiveness have been observed
